Assay results as given in ChEMBL document CHEMBL5653631, “A Potent and Selective ULK1 Inhibitor Suppresses Autophagy and Sensitizes Cancer Cells to Nutrient Stress” (iScience, 2018).
Each block holds one compound with its values, some of them ahead of it.

How the values were obtained:
[1] = biological target: T1, Serine/threonine-protein kinase Nek3 (Homo sapiens) (UniProt P51956); assay: Inhibition of human recombinant NEK3 at 500 nM related to control ULK1
T1 sequence (whole entry): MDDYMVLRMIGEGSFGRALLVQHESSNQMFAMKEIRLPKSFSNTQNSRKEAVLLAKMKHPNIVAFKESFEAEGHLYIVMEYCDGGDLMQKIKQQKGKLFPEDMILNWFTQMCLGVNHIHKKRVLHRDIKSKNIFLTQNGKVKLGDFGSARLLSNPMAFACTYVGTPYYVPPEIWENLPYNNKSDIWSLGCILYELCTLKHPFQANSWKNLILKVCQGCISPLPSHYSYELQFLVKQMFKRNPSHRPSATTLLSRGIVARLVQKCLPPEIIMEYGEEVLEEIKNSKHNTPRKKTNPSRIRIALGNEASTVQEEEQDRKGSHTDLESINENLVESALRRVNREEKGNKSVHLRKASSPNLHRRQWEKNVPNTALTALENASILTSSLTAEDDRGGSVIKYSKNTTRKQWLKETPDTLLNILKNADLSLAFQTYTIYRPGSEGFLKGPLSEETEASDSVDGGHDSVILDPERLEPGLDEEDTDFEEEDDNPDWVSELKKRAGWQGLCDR

[2] = biological target: T2, Tyrosine-protein kinase Mer (Homo sapiens) (UniProt Q12866); assay: Inhibition of human recombinant MER at 500 nM in presence of ATP by radiometric assay relative to control
T2 sequence (whole entry): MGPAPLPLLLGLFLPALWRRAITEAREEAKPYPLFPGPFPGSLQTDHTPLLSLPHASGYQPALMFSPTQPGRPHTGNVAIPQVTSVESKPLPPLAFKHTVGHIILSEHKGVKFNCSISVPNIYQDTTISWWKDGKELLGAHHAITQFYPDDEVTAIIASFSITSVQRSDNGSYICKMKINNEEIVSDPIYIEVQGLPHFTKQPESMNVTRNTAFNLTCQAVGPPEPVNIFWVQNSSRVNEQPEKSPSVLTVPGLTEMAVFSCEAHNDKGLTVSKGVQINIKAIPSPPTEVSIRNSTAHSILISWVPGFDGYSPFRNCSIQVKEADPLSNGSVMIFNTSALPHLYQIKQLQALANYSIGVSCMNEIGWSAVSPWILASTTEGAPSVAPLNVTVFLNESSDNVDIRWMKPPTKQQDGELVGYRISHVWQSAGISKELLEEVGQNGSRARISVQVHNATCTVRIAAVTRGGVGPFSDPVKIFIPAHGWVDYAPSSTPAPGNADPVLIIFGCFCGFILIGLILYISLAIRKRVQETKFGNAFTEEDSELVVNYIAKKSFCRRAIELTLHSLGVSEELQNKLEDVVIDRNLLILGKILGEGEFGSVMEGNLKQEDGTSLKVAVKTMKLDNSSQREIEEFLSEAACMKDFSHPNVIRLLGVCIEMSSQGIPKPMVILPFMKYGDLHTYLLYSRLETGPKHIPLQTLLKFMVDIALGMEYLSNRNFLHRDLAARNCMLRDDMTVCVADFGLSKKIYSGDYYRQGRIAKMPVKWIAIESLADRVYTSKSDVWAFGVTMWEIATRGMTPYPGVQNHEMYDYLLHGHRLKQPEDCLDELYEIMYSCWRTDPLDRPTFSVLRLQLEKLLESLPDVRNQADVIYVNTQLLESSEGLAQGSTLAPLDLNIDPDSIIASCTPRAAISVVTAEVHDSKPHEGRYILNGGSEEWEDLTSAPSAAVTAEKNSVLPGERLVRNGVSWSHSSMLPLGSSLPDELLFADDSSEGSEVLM

[3] = biological target: TGF-beta receptor type-2 (Homo sapiens) (UniProt P37173); assay: Inhibition of human recombinant TGFbR2 at 15 nM related to control ULK1
[4] = biological target: Serine/threonine-protein kinase pim-1 (Homo sapiens) (UniProt P11309); assay: Inhibition of human recombinant PIM1 at 15 nM related to control ULK1
[5] = biological target: Cyclin-dependent kinase 18 (Homo sapiens) (UniProt Q07002); assay: Inhibition of human recombinant PCTAIRE3 at 15 nM related to control ULK1
[6] = biological target: T3, Serine/threonine-protein kinase PLK4 (Homo sapiens) (UniProt O00444); assay: Inhibition of human recombinant PLK4 at 40 nM in presence of ATP by radiometric assay relative to control
T3 sequence (whole entry): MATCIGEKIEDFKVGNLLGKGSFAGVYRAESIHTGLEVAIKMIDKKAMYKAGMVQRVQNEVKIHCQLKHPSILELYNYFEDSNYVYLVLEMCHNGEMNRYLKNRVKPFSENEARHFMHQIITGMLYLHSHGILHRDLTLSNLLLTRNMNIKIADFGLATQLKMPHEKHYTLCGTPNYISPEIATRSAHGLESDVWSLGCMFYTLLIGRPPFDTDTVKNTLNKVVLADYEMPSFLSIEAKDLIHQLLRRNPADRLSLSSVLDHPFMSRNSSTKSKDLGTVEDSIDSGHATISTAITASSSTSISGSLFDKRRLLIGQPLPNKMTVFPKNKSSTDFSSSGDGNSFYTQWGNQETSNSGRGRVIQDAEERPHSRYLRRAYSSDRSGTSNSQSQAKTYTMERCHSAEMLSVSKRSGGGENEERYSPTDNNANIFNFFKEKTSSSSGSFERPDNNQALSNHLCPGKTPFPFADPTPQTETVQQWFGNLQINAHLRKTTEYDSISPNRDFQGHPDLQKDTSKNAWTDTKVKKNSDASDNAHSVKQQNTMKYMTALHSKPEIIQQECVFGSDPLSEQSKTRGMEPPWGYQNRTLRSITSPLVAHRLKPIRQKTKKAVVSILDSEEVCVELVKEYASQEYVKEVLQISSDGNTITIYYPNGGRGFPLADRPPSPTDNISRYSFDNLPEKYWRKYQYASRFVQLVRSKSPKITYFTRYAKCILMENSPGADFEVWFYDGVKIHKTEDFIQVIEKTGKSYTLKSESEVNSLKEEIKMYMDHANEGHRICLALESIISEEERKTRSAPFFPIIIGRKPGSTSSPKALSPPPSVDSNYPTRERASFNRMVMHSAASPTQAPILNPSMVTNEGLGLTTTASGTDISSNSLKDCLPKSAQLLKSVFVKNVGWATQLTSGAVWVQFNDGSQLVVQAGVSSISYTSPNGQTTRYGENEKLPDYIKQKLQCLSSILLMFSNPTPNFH

Chain of Cyclin-dependent kinase 18 (Homo sapiens) (Q07002 whole entry): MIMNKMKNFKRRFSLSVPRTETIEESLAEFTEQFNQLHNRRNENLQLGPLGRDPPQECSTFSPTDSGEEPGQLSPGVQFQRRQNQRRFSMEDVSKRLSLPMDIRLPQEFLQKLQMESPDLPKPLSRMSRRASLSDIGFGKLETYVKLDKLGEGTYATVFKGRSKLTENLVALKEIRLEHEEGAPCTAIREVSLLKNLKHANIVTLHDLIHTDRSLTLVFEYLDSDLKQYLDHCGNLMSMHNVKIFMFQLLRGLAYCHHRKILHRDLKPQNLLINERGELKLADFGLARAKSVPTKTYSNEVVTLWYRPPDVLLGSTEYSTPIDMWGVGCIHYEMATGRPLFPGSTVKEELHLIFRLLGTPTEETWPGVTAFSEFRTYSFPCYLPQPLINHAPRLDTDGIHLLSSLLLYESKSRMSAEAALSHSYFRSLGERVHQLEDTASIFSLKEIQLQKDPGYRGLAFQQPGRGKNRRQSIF
Chain of Serine/threonine-protein kinase pim-1 (Homo sapiens) (P11309 whole entry, looked up): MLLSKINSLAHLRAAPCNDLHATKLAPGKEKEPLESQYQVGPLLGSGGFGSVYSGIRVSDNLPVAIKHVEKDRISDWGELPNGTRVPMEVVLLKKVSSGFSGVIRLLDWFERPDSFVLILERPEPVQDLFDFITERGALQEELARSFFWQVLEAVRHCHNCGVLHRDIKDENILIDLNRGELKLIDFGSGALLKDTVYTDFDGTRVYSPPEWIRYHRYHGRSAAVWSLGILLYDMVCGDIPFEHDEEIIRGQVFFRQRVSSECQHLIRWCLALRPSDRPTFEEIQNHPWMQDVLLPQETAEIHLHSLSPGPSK
Chain of TGF-beta receptor type-2 (Homo sapiens) (P37173 whole entry): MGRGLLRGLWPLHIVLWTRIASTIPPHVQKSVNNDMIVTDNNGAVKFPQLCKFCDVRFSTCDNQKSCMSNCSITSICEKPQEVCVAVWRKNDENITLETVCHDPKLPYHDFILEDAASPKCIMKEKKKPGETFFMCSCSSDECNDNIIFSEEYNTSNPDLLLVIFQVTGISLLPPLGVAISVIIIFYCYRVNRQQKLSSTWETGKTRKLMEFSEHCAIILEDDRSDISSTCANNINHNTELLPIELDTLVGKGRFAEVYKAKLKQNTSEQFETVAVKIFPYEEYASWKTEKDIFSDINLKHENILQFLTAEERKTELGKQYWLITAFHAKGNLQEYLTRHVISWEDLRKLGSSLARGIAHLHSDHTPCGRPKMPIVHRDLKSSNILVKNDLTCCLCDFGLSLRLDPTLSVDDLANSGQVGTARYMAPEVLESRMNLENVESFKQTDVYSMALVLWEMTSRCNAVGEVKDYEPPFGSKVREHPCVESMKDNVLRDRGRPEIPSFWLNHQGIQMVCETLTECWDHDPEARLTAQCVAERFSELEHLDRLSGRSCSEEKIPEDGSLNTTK

- fold change (FC) [1]: 0.09
- inhibition [2]: 9%
Structure (SMILES): CNC(=O)c1ccccc1Oc1nc(Nc2cc(OC)c(OC)c(OC)c2)ncc1Br

- fold change (FC) [3]: 0.48
- fold change (FC) [4]: 0.16
- fold change (FC) [5]: 0.76
Structure (SMILES): CC(C)[C@H](NC(=O)c1cc(-c2cnn3cc(-c4ccc(OCCN5CCCCC5)cc4)cnc23)cs1)C(F)(F)F

- inhibition [6]: 7%
Structure (SMILES): O=C(N[C@@H](C1CC1)C(F)(F)F)c1cc(-c2cnn3cc(-c4ccc(F)cc4)cnc23)cs1
